What was measured:
Type in all cases: cell-based, human
HeLa cells [1] = assay: Spindle phenotypes, fixed cells stained for γ-tubulin and ACA; conditions: 300 nM for 4 hours
From the text: (§1) For each condition, 20,000 cells were counted per replicate (N=3). Line graphs (right) were made to better illustrate the relative changes in the cell cycle phases for the different treatments. Bars show standard deviation. The asterisks indicate the first statistically significant change in the G0/G1 and G2/M populations determined by a two-way ANOVA with a post-hoc Tukey's multiple comparisons test using 95% confidence intervals. FIG. 2B) is a line graph showing the percentage of HCT116 (p53−/−) cells, A549 cells, HeLa cells and H1299 cells in mitosis after treatment with various concentrations of C75 for one population doubling time. All of the cell lines show an increase in the proportion of mitotic cells after treatment with 200 nM C75. The bars indicate standard deviation. […] While the mitotic spindles were not dramatically altered by C75 in HFF1 cells, they were monopolar (as shown) or fragmented in the other cell types. […] The mitotic spindles were more strongly fragmented after C75 treatment in these cells vs. the cells in FIG. 2C). FIG. 2E) are images showing fixed HFF1, HeLa, A549 and HCT 116 cells co-stained for γ-tubulin (spindle poles; white) and ACA (centromeres; light grey) 4 hours after treatment with 300 nM C87 (control) or 300 nM C75. Cartoon schematics show examples of the different spindle phenotypes, including bipolar with aligned chromosomes (top), bipolar with misaligned chromosomes (upper middle), multipolar/fragmented (lower middle), or monopolar (bottom), and the proportion of that phenotype is shown in the top right corner of each image. FIG. 2F) is a bar graph showing the proportion of the different spindle phenotypes for HFF1, HeLa, A549 and HCT 116 cells treated as in FIG. 2E) (n=1355; N=3). Bars show standard deviation. […] While mitotic spindles recovered bipolarity after removing nocodazole, they remained multipolar after removing C75. […] FIG. 2J) is a bar graph showing the proportion of cells with monopolar (black), bipolar (dark grey) or multipolar (light grey) spindles. Bars show standard deviation. FIG. 2K) is a series of time-lapse images of a live HeLa cell expressing GFP:tubulin after treatment with C75 as shown in 2G). […] Drugs were not washed out. […]
(§2) C75 was also tested for efficacy in different cancer cell lines. […] To further assess the role of C75 in disrupting spindles, HeLa cells were treated with 300 nM C75 for 4 hours and the spindle phenotypes were analyzed in more detail (FIG. 2E). […] To assess the affect of C75 on centrosomes, HeLa cells were treated with C75 or nocodazole (a drug that causes microtubule depolymerization as a control) for a short period of time (5 minutes), then the drugs were removed and the cells were analyzed for spindle phenotypes (schematic in FIG. 2G). […]

A549 cells = assay: as above; conditions: 300 nM for 4 hours
From the text: as §1, §2

HeLa cells [2] = assay: Percentage of mitotic cells, nocodazole +/- C75; conditions: 200 nM C75 + 33 or 66 nM nocodazole

COc1ccc(S(=O)(=O)N2Cc3ccccc3-c3sc(Br)cc32)cc1 [Compound C75]
cells with bipolar spindles with misaligned chromosomes (HeLa cells [1]): 41%
cells with multipolar or fragmented spindles (HeLa cells [1]): 31%
cells with bipolar spindles with misaligned chromosomes (A549 cells): 17%
cells with multipolar or fragmented spindles (A549 cells): 78%
change in proportion of mitotic cells (HeLa cells [2]): large change

Source: patent US20200276181A1, “THIENOISOQUINOLINES AND THEIR DERIVATIVES FOR TARGETING TUBULIN, CH-TOG, AURORA A KINASE, TPX2, CDK5RAP2 AND/OR ASPM” (VALORBEC, SEC, priority 2017, published 2020)
